# Assay results taken from patent publication US10689383B2, “Optionally fused heterocyclyl-substituted derivatives of pyrimidine useful for the treatment of inflammatory, metabolic, oncologic and autoimmune diseases” (NUEVOLUTION A/S, priority 2014, dated 2020).
# Assays:
# [1] = biological target: T1, human RORγt (Ligand Binding Domain) (Homo sapiens, UniProt P51449); assay: Fluorescence Polarization (FP) Assay; details: Fluorescence Polarization (FP) Assay; values given as upper bounds of activity ranges; read-out: FP activity range
# T1 construct: purchased Crelux (Planegg, Germany) batch no PC5032-1
# T1 sequence (P51449 269-508 limits assumed): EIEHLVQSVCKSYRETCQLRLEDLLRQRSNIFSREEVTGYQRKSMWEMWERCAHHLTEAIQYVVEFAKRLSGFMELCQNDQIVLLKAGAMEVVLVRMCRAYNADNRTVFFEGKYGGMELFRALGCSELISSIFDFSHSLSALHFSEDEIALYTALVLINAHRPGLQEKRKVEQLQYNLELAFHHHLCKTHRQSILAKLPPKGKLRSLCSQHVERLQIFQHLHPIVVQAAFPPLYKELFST
# How it was run: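 Binding to the ligand pocket followed by fluorescence polarization with a TAMRA-tagged RORγt ligand probe of 910 g/mole. Negative control wells received DMSO only.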
# [2] = biological target: T2, yeast Gal4-DNA binding domain fused to the ligand binding domain of human RORγ (Homo sapiens, UniProt P51449); assay: RORγ Reporter Assay (Gal4); type: cell-based; details: values given as lower bounds of ranges; for Gal4 activity range @ 0.1 μM (% inhibition): RORγ Reporter Assay (Gal4) at 0.1 μM; for Gal4 activity range @ 1 μM (% inhibition): RORγ Reporter Assay (Gal4) at 1 μM
# T2 construct: host or cells: HEK293t
# T2 sequence (P51449 269-508 limits assumed): T1 sequence (P51449 269-508 limits assumed)
# How it was run: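 Compound at final 1,000 or 100 nM (0.1% DMSO, triplicate) was added to the transfected HEK293t cells carrying a Gal4-UAS luciferase reporter for 24 h at 37 °C, 10% charcoal-stripped FBS. Activity reduction expressed as percent of vehicle-only luciferase signal.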
SMILES,IC50 [1] [nM],Gal4 activity range @ 0.1 μM (% inhibition) [2] [% inhibition],Gal4 activity range @ 1 μM (% inhibition) [2] [% inhibition]
"CNC(=O)C1(CNc2ncnc(N3CCOC[C@@H]3c3ccc(C(F)(F)F)cc3)c2F)CCOCC1 [Example 286, 4-[[[5-fluoro-6-[(3S)-3-[4-(trifluoromethyl)phenyl]morpholin-4-yl]pyrimidin-4-yl]amino]methyl]-N-methyl-tetrahydropyran-4-carboxamide]",< 2000,>20,>20
"O=S(=O)(Nc1ccc(CNc2ncnc(N3CCOC[C@@H]3c3ccc(C(F)(F)F)cc3)c2F)cc1)C(F)(F)F [Example 291, 1,1,1-trifluoro-N-[4-[[[5-fluoro-6-[(3S)-3-[4-(trifluoromethyl)phenyl]morpholin-4-yl]pyrimidin-4-yl]amino]methyl]phenyl] methanesulfonamide]",< 1000,>0,>50
"NC(=O)Cc1ccc(CNc2ncnc(N3CCCC3c3ccc4c(c3)OCO4)c2F)cc1 (centres unmarked) [Example 299, 2-[4-[[[6-[2-(1,3-benzodioxol-5-yl)pyrrolidin-1-yl]-5-fluoro-pyrimidin-4-yl]amino]methyl]phenyl]acetamide]",< 1000,>0,>80
"NC(=O)Cc1ccc(CNc2ncnc(N3CCCC3c3ccc(O)cc3)c2F)cc1 (centres unmarked) [Example 300, 2-[4-[[[5-fluoro-6-[2-(4-hydroxyphenyl)pyrrolidin-1-yl]pyrimidin-4-yl]amino]methyl]phenyl]acetamide]",< 10000,>20,>20
"NC(=O)Cc1ccc(CNc2ncnc(N3CCC3c3ccc(C(F)(F)F)cc3)c2F)cc1 (centres unmarked) [Example 307, 2-[4-[[[5-fluoro-6-[2-[4-(trifluoromethyl)phenyl]azetidin-1-yl]pyrimidin-4-yl]amino]methyl]phenyl]acetamide]",< 2000,>20,>50
"NC(=O)Cc1ccc(CNc2ncnc(N3CCCCC3c3ccc(C(F)(F)F)cc3)c2F)cc1 (centres unmarked) [Example 308, 2-[4-[[[5-fluoro-6-[2-[4-(trifluoromethyl)phenyl]-1-piperidyl]pyrimidin-4-yl]amino]methyl]phenyl]acetamide]",< 10000,>20,>50
"Cc1ccc(C2CCCN2c2ncnc(NCc3ccc(CC(N)=O)cc3)c2F)o1 (centres unmarked) [Example 313, 2-[4-[[[5-fluoro-6-[2-(5-methyl-2-furyl)pyrrolidin-1-yl]pyrimidin-4-yl]amino]methyl]phenyl]acetamide]",< 500,>20,>80
"CCc1ccc(C2CCCN2c2ncnc(NCc3ccc(CC(N)=O)cc3)c2F)o1 (centres unmarked) [Example 316, 2-[4-[[[6-[2-(5-ethyl-2-furyl)pyrrolidin-1-yl]-5-fluoro-pyrimidin-4-yl]amino]methyl]phenyl]acetamide]",< 500,>20,>80
"COc1ccc(C2CCCN2c2ncnc(NCc3ccc(CC(N)=O)cc3)c2F)c(OC)c1 (centres unmarked) [Example 318, 2-[4-[[[6-[2-(2,4-dimethoxyphenyl)pyrrolidin-1-yl]-5-fluoro-pyrimidin-4-yl]amino]methyl]phenyl]acetamide]",< 500,>20,>20
"O=S(=O)(O)c1ccc(CNc2ncnc(N3CCC[C@@H]3c3ccc(C(F)(F)F)cc3)c2F)cc1 [Example 319, 4-[[[5-fluoro-6-[(2R)-2-[4-(trifluoromethyl)phenyl]pyrrolidin-1-yl]pyrimidin-4-yl]amino]methyl]benzenesulfonic acid]",< 500,,>0

# More lines, now with the values ahead:
IC50 [1] [nM],Gal4 activity range @ 0.1 μM (% inhibition) [2] [% inhibition],Gal4 activity range @ 1 μM (% inhibition) [2] [% inhibition],SMILES
< 500,>0,>20,"O=S(=O)(CC(F)(F)F)N[C@H]1CC[C@H](CNc2ncnc(N3CCOC[C@@H]3c3ccc(OC(F)(F)F)cc3)c2F)CC1 [Example 285, 2,2,2-trifluoro-N-[4-[[[5-fluoro-6-[(3S)-3-[4-(trifluoromethoxy)phenyl]morpholin-4-yl]pyrimidin-4-yl]amino]methyl]cyclohexyl]ethane sulfonamide]"
< 500,>50,>80,"N#CC[C@H]1CC[C@H](CNc2ncnc(N3CCOC[C@@H]3c3ccc(C(F)(F)F)cc3)c2F)CC1 [Example 287, 2-[4-[[[5-fluoro-6-[(3S)-3-[4-(trifluoromethyl)phenyl]morpholin-4-yl]pyrimidin-4-yl]amino]methyl]cyclohexyl] acetonitrile]"
< 500,>80,>80,"Fc1c(NC[C@H]2CC[C@H](Cc3nnn[nH]3)CC2)ncnc1N1CCOC[C@@H]1c1ccc(C(F)(F)F)cc1 [Example 288, 5-fluoro-N-[[4-(1H-tetrazol-5-ylmethyl)cyclohexyl]methyl]-6-[(3S)-3-[4-(trifluoromethyl)phenyl]morpholin-4-yl]pyrimidin-4-amine]"
< 500,>50,>80,"CS(=O)(=O)N1CCC(Cn2ccc3c(N4CCOC[C@@H]4c4ccc(OC(F)(F)F)cc4)ncnc32)CC1 [Example 290, (3S)-4-[7-[(1-methylsulfonyl-4-piperidyl)methyl]pyrrolo[2,3-d]pyrimidin-4-yl]-3-[4-(trifluoromethoxy)phenyl] morpholine]"
< 500,>0,>20,"N#CNC(=O)Cc1ccc(CNc2ncnc(N3CCOCC3c3ccc(C(F)(F)F)cc3)c2F)cc1 (centres unmarked) [Example 292, N-cyano-2-[4-[[[5-fluoro-6-[3-[4-(trifluoromethyl)phenyl]morpholin-4-yl]pyrimidin-4-yl]amino]methyl]phenyl]acetamide]"
< 500,>20,>80,"CC1(CNc2ncnc(N3CCOC[C@@H]3c3ccc(C(F)(F)F)cc3)c2F)CCCCC1O (stereo partly drawn) [Example 295, 2-[[[5-fluoro-6-[(3S)-3-[4-(trifluoromethyl)phenyl]morpholin-4-yl]pyrimidin-4-yl]amino]methyl]-2-methyl-cyclohexanol]"
< 500,>50,>80,"CCOc1ccc(C2CCCN2c2ncnc(NCc3ccc(CC(N)=O)cc3)c2F)cc1 (centres unmarked) [Example 301, 2-[4-[[[6-[2-(4-ethoxyphenyl)pyrrolidin-1-yl]-5-fluoro-pyrimidin-4-yl]amino]methyl]phenyl]acetamide]"
< 500,>20,>50,"Cc1ccc(C2CCCN2c2ncnc(NCc3ccc(CC(N)=O)cc3)c2F)cc1 (centres unmarked) [Example 302, 2-[4-[[[5-fluoro-6-[2-(p-tolyl)pyrrolidin-1-yl]pyrimidin-4-yl]amino]methyl]phenyl]acetamide]"
< 500,>80,>80,"CC(C)c1ccc(C2CCCN2c2ncnc(NCc3ccc(CC(N)=O)cc3)c2F)cc1 (centres unmarked) [Example 303, 2-[4-[[[5-fluoro-6-[2-(4-isopropylphenyl)pyrrolidin-1-yl]pyrimidin-4-yl]amino]methyl]phenyl]acetamide]"
< 500,>20,>80,"COc1cccc(C2CCCN2c2ncnc(NCc3ccc(CC(N)=O)cc3)c2F)c1 (centres unmarked) [Example 304, 2-[4-[[[5-fluoro-6-[2-(3-methoxyphenyl)pyrrolidin-1-yl]pyrimidin-4-yl]amino]methyl]phenyl]acetamide]"
< 500,>50,>80,"NC(=O)Cc1ccc(CNc2ncnc(N3CCCC3c3cccc(Br)c3)c2F)cc1 (centres unmarked) [Example 305, 2-[4-[[[6-[2-(3-bromophenyl)pyrrolidin-1-yl]-5-fluoro-pyrimidin-4-yl]amino]methyl]phenyl]acetamide]"
< 500,>50,>80,"NC(=O)Cc1ccc(CNc2ncnc(N3CCCC3c3cccc(Cl)c3)c2F)cc1 (centres unmarked) [Example 306, 2-[4-[[[6-[2-(3-chlorophenyl)pyrrolidin-1-yl]-5-fluoro-pyrimidin-4-yl]amino]methyl]phenyl]acetamide]"
